Test results: publication PMC3759295 (Toxicology letters, 2013)
Where “and” joins values, the source holds several entries; their conditions need not be identical. Equal entries are not always repeated. One block for each molecule: values may come before it.

Key:
CYP1A1 mRNA = CYP1A1 mRNA expression in primary human hepatocytes; format: cell-based; conditions: human
AhR [1] = biological target: T1, AhR (Homo sapiens, UniProt P35869); experiment: Gene reporter assay, transcriptional activity of AhR in AZ-AHR reporter cells; conditions: 10 µM and 50 µM, 24 h
T1 sequence (P35869 11-848): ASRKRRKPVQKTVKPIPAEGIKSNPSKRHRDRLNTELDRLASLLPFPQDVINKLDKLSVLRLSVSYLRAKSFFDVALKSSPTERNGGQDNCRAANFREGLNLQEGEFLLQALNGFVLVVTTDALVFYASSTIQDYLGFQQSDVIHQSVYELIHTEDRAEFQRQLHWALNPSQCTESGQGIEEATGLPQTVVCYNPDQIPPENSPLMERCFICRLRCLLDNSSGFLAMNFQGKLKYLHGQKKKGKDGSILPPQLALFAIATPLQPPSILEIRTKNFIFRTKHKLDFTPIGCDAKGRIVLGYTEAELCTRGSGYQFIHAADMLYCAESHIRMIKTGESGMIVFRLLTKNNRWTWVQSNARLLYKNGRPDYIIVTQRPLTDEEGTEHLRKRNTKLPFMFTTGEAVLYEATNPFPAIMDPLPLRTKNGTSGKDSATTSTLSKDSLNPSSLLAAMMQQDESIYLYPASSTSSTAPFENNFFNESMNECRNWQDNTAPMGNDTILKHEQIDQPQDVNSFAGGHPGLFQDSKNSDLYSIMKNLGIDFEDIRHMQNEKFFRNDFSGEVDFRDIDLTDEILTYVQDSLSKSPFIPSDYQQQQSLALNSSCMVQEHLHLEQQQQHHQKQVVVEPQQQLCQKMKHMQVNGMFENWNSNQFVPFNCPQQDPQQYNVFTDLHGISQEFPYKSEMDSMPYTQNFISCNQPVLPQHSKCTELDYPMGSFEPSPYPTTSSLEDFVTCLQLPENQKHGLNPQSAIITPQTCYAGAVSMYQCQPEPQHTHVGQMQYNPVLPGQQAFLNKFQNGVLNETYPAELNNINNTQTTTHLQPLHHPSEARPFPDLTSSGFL

[2] = tested on: CYP1A1 mRNA in primary human hepatocytes; experiment: CYP1A1 mRNA expression in primary human hepatocytes; format: cell-based
AhR [3] = biological target: T2, AhR (Cavia porcellus, UniProt Q6J287); conditions: any tested concentration, 2 nM [3H]TCDD
T2 sequence (Q6J287 1-846): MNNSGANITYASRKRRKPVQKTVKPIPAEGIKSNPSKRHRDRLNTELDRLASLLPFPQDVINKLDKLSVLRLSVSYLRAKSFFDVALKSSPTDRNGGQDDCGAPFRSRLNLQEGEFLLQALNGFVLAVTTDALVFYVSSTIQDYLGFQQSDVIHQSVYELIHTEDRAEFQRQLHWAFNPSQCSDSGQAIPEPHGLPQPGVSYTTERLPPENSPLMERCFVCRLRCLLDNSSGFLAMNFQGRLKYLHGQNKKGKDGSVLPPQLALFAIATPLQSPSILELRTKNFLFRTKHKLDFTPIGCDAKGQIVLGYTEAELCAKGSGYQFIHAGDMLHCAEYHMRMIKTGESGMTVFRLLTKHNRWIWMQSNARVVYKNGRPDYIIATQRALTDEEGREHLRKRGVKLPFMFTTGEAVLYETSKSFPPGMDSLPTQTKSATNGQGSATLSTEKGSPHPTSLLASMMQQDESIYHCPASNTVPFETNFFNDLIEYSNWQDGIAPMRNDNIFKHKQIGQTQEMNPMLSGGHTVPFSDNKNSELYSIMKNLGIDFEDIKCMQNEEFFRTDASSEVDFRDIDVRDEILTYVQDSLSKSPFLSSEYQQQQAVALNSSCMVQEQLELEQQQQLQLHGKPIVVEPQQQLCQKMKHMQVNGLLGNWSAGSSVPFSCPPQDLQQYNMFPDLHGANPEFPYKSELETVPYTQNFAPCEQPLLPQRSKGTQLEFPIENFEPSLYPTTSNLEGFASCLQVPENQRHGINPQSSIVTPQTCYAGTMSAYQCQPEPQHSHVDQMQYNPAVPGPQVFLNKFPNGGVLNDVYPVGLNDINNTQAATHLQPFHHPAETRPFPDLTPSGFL

[4] = tested on: CYP1A1 mRNA in HepG2 cells; experiment: CYP1A1 mRNA expression in HepG2 cells; conditions: 24 h
[5] = tested on: CYP1A1 mRNA in LS174T cells; experiment: CYP1A1 mRNA expression in LS174T cells; conditions: 24 h
[6] = tested on: CYP1A1 protein in primary human hepatocytes; experiment: CYP1A1 protein in primary human hepatocytes; conditions: for induction of CYP1A1 protein: four different primary human hepatocytes cultures
CYP1A1 [7] = biological target: T3, CYP1A1 (Homo sapiens, UniProt P04798); experiment: Enzyme activity of CYP1A1 in human liver microsomes; format: biochemical; conditions: 100 µM
T3 sequence (P04798 1-512): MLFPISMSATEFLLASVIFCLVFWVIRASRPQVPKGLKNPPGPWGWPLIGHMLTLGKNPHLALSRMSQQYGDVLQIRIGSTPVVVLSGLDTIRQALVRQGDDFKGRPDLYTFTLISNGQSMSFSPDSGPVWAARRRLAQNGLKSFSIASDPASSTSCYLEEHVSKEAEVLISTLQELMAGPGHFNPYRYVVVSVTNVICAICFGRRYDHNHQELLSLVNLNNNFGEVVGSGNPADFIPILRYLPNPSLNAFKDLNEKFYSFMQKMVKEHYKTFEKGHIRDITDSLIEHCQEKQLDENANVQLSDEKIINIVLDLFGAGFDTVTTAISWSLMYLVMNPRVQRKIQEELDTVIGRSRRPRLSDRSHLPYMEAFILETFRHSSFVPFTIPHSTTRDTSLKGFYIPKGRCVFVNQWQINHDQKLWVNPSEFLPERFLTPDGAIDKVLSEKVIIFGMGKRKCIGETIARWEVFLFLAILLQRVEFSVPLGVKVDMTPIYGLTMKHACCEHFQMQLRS

[8] = tested on: CYP1A1 protein in HepG2 cells; experiment: CYP1A1 protein in HepG2 cells; format: cell-based, human; conditions: HepG2, TCDD 5 nM, 48 h
[9] = tested on: CYP1A1 protein in LS174T cells; experiment: CYP1A1 protein in LS174T cells; format: cell-based, human; conditions: TCDD 5 nM, 48 h
CYP1A1 [10] = conditions: read-out: IC50, inhibition of CYP1A1; aglycons (anthocyanidins); ref Kamenickova et al. 2013; cited from earlier work
[11] = primary human hepatocytes (culture LH48 as printed)
[12] = male, primary human hepatocytes (culture LH45)
[13] = male, primary human hepatocytes (culture LH46)
[14] = male, primary human hepatocytes (culture LH47)

Compound: CC1OC(OCC2OC(Oc3cc4c(O)cc(O)cc4[o+]c3-c3ccc(O)cc3)C(O)C(O)C2O)C(O)C(O)C1O.[Cl-] (stereo not drawn) [PEL-2, pelargonidin-3-O-rutinoside chloride]
CYP1A1 activity remaining, % of the initial activity (without anthocyanin) (CYP1A1 [7]): 79%
induction of luciferase activity (AhR [1]): concentration-dependent induction
CYP1A1 mRNA fold induction over the vehicle-treated cells, LH45 ([2]; hepatocyte culture LH45, 10 µM, 24 h): 0.87 ± 0.04 fold
CYP1A1 mRNA fold induction over the vehicle-treated cells, LH45 ([2]; hepatocyte culture LH45, 50 µM, 24 h): 0.24 ± 0.01 fold
CYP1A1 mRNA fold induction over the vehicle-treated cells, LH46 ([2]; hepatocyte culture LH46, 10 µM, 24 h): 2.66 ± 0.20 fold
CYP1A1 mRNA fold induction over the vehicle-treated cells, LH46 ([2]; hepatocyte culture LH46, 50 µM, 24 h): 2.39 ± 0.22 fold
CYP1A1 mRNA fold induction over the vehicle-treated cells, LH47 ([2]; hepatocyte culture LH47, 50 µM, 24 h): 0.61 ± 0.01 fold
CYP1A1 mRNA fold induction over the vehicle-treated cells, LH48 ([2]; hepatocyte culture LH48 (so in the source), 50 µM, 24 h): 0.60 ± 0.17 fold
induction of CYP1A1 mRNA ([2]; hepatocytes): Neither compound induced
induction of CYP1A1 protein [6]: Neither compound induced

Compound: Clc1cc2c(cc1Cl)Oc1cc(Cl)c(Cl)cc1O2 [TCDD, 2,3,7,8-Tetrachlorodibenzo-p-dioxin]
levels of CYP1A1 protein [8]: strongly induced
CYP1A1 mRNA fold induction over the vehicle-treated cells, LH45 ([2]; hepatocyte culture LH45, TCDD 5 nM, 24 h): 125.4 ± 17.7 fold
CYP1A1 mRNA fold induction over the vehicle-treated cells, LH47 ([2]; hepatocyte culture LH47, TCDD 5 nM, 24 h): 104.7 ± 13.4 fold
magnitude of induction of CYP1A1 mRNA, LH49 ([2]; hepatocyte culture LH49, TCDD, 24 h): 71 fold
levels of CYP1A1 protein [9]: strongly induced
induction of CYP1A1 mRNA ([4]; HepG2, TCDD 5 nM, two independent experiments): 322 fold and 216 fold
induction of CYP1A1 mRNA ([5]; TCDD 5 nM, two independent experiments): 1003 fold and 724 fold
levels of CYP1A1 protein ([6]; four human hepatocytes cultures, TCDD 5 nM, 48 h): strongly induced

Compound: Oc1cc(O)c2cc(O)c(-c3cc(O)c(O)c(O)c3)[o+]c2c1 [delphinidin]
IC50 (CYP1A1 [10]): 77 µM

Compound: Oc1ccc(-c2[o+]c3cc(O)cc(O)c3cc2O)cc1 [pelargonidin]
IC50 (CYP1A1 [10]): 33 µM

Other lines, results leading:

fold induction at 24 h, 50 µM (CYP1A1 mRNA; [11]): 0.03
fold induction at 24 h, 10 µM (CYP1A1 mRNA; [12]): 1.22 ± 0.04
fold induction at 24 h, 50 µM (CYP1A1 mRNA; [12]): 0.73 ± 0.22
fold induction at 24 h, 10 µM (CYP1A1 mRNA; [13]): 1.14 ± 0.2
fold induction at 24 h, 50 µM (CYP1A1 mRNA; [13]): 1.04 ± 0.12
fold induction at 24 h, 50 µM (CYP1A1 mRNA; [14]): 0.28 ± 0.01
Compound: OC[C@H]1O[C@@H](Oc2cc3c(O)cc(O)cc3[o+]c2-c2ccc(O)c(O)c2)[C@H](O)[C@@H](O)[C@@H]1O [CYA-1, cyanidin-3-O-glucoside chloride]

induction of luciferase activity (AhR [1]): concentration-dependent induction
fold induction at 24 h, 50 µM (CYP1A1 mRNA; [11]): 0.13 ± 0.03
fold induction at 24 h, 10 µM (CYP1A1 mRNA; [12]): 0.68 ± 0.2
fold induction at 24 h, 50 µM (CYP1A1 mRNA; [12]): 0.48 ± 0.07
fold induction at 24 h, 10 µM (CYP1A1 mRNA; [13]): 2.21 ± 0.16
fold induction at 24 h, 50 µM (CYP1A1 mRNA; [13]): 2.59 ± 0.09
fold induction at 24 h, 50 µM (CYP1A1 mRNA; [14]): 0.45 ± 0.03
induction of CYP1A1 mRNA ([2]; four different primary human hepatocytes cultures): Neither compound induced
displacement of radiolabelled TCDD from AhR (AhR [3]): did not displace
level of CYP1A1 mRNA ([4]; HepG2, 50 µM): significantly increased
level of CYP1A1 mRNA ([5]; 50 µM): significantly increased
induction of CYP1A1 protein [6]: Neither compound induced
Compound: OC[C@H]1O[C@@H](Oc2cc3c(O[C@@H]4O[C@H](CO)[C@@H](O)[C@H](O)[C@H]4O)cc(O)cc3[o+]c2-c2ccc(O)c(O)c2)[C@H](O)[C@@H](O)[C@@H]1O [CYA-3, cyanidin-3,5-di-O-glucoside chloride]

fold induction at 24 h, 50 µM (CYP1A1 mRNA; [11]): 0.29 ± 0.03
fold induction at 24 h, 10 µM (CYP1A1 mRNA; [12]): 1.13 ± 0.35
fold induction at 24 h, 50 µM (CYP1A1 mRNA; [12]): 0.93 ± 0.11
fold induction at 24 h, 10 µM (CYP1A1 mRNA; [13]): 2.34 ± 0.25
fold induction at 24 h, 50 µM (CYP1A1 mRNA; [13]): 1.56 ± 0.23
fold induction at 24 h, 50 µM (CYP1A1 mRNA; [14]): 0.14 ± 0.13
Compound: COc1cc(-c2[o+]c3cc(O)cc(O)c3cc2O[C@@H]2O[C@H](CO)[C@@H](O)[C@H](O)[C@H]2O)cc(OC)c1O [MAL-1, malvidin-3-O-glucoside chloride]

induction of luciferase activity (AhR [1]): No significant induction
Compound: Oc1cc(O)c2c(c1)O[C@@]1(c3ccc(O)c(O)c3)Oc3cc(O)c4c(c3[C@@H]2[C@H]1O)O[C@H](c1ccc(O)c(O)c1)[C@H](O)C4 [PAC, proanthocyanidin A2]
